This passage reports EC50 results from patent US20140031278A1, “Novel Glucagon Analogues” (NOVO NORDISK A/S, priority 2011, published 2014).

pEC50: −log10 of the molar value. *1 amine or outer side, *2 acyl side, *3 side chain or, on linkers, in order; H or OH if unused. Where a SMILES comes first, the peptide text is derived from it. Side-chain parts run from the residue outwards. γGlu = O=C(O)[C@H](CCC(=O)[*:2])N[*:1]

In this test the target is T1, glucagon receptor (Homo sapiens, UniProt P47871).
T1 construct: expressed in transfected cells
T1 sequence (P47871 26-477): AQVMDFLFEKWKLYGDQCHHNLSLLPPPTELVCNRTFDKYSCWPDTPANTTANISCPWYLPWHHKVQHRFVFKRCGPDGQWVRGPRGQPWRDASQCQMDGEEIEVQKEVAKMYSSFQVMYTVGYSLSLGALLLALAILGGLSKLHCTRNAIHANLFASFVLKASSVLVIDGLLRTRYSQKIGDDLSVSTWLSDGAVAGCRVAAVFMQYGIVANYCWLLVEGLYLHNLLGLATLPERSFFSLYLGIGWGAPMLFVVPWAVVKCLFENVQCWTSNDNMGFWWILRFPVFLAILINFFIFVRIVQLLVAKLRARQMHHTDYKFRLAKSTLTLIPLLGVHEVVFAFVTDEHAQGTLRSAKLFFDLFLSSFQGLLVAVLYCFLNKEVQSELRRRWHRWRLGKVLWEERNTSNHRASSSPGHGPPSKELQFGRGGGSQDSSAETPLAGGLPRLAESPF
The test is described as follows: Assay (I) Glucagon activity (cAMP biosensor, FLIPR). Type of test: cell-based. As to conditions: HEK-293 cells with cloned glucagon receptor and cAMP biosensor; end point after 6 minutes. In a few lines: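 HEK-293 cells expressing glucagon receptor with membrane cAMP biosensor (ACTOne), calcium-dye loaded with probenecid and a PDE inhibitor.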

With `CC(=O)N[C@@H](CCC(=O)N[C@@H](CCC(=O)N[C@@H](CCC(=O)N[C@@H](CCC(=O)NCCCC[C@H](NC(=O)[C@@H](NC(=O)[C@H](Cc1ccccc1)NC(=O)[C@H](CC(=O)O)NC(=O)[C@H](CCC(N)=O)NC(=O)[C@H](C)NC(=O)[C@H](CCCNC(=N)N)NC(=O)[C@H](CCCNC(=N)N)NC(=O)[C@H](CO)NC(=O)[C@H](CCC(=O)O)NC(=O)[C@H](CC(C)C)NC(=O)[C@H](Cc1ccc(O)cc1)NC(=O)[C@H](CCCCN)NC(=O)[C@H](CO)NC(=O)[C@H](Cc1ccc(O)cc1)NC(=O)[C@H](CC(=O)O)NC(=O)[C@H](CO)NC(=O)[C@@H](NC(=O)[C@H](Cc1ccccc1)NC(=O)[C@@H](NC(=O)CNC(=O)[C@H](CCC(N)=O)NC(=O)[C@H](CO)NC(=O)[C@@H](N)Cc1c[nH]cn1)[C@@H](C)O)[C@@H](C)O)C(C)C)C(=O)N[C@@H](Cc1c[nH]c2ccccc12)C(=O)N[C@@H](CC(C)C)C(=O)N[C@@H](CC(C)C)C(=O)N[C@@H](CC(N)=O)C(=O)N[C@H](C(=O)O)[C@@H](C)O)C(=O)O)C(=O)O)C(=O)O)C(=O)O` [Example 17, N^ε24-[(4S)-4-[[(4S)-4-[[(4S)-4-[[(4S)-4-acetamido-4-carboxybutanoyl]amino]-4-carboxybutanoyl]amino]-4-carboxybutanoyl]amino]-4-carboxybutanoyl]-[Glu15,Lys24,Leu27]-Glucagon], the pEC50 was 10.78.

Compound `CC(=O)N[C@@H](CCC(=O)N[C@@H](CCC(=O)N[C@@H](CCC(=O)N[C@@H](CCC(=O)NCCCC[C@H](NC(=O)[C@@H](NC(=O)[C@H](Cc1ccccc1)NC(=O)[C@H](CC(=O)O)NC(=O)[C@H](CCC(N)=O)NC(=O)[C@H](C)NC(=O)[C@H](CCCNC(=N)N)NC(=O)[C@H](CCCNC(=N)N)NC(=O)[C@H](Cc1ccc(O)cc1)NC(=O)[C@H](CC(=O)O)NC(=O)[C@H](CC(C)C)NC(=O)[C@H](Cc1ccc(O)cc1)NC(=O)[C@H](CCCCN)NC(=O)[C@H](CO)NC(=O)[C@H](Cc1ccc(O)cc1)NC(=O)[C@H](CC(=O)O)NC(=O)[C@H](CO)NC(=O)[C@@H](NC(=O)[C@H](Cc1ccccc1)NC(=O)[C@@H](NC(=O)CNC(=O)[C@H](CCC(N)=O)NC(=O)[C@H](CO)NC(=O)[C@@H](N)Cc1c[nH]cn1)[C@@H](C)O)[C@@H](C)O)C(C)C)C(=O)N[C@@H](Cc1c[nH]c2ccccc12)C(=O)N[C@@H](CC(C)C)C(=O)N[C@@H](CC(C)C)C(=O)N[C@@H](CO)C(=O)N[C@H](C(=O)O)[C@@H](C)O)C(=O)O)C(=O)O)C(=O)O)C(=O)O` [Example 37, N^ε24-[(4S)-4-[[(4S)-4-[[(4S)-4-[[(4S)-4-acetamido-4-carboxybutanoyl]amino]-4-carboxybutanoyl]amino]-4-carbox[…]ybutanoyl]amino]-4-carboxybutanoyl]-[Tyr16,Lys24,Leu27,Ser28]-Glucagon] showed a pEC50 of 11.52.

Turning to `CC(=O)N[C@@H](CCC(=O)N[C@@H](CCC(=O)N[C@@H](CCC(=O)N[C@@H](CCC(=O)NCCCC[C@H](NC(=O)[C@@H](NC(=O)[C@H](Cc1ccccc1)NC(=O)[C@H](CC(=O)O)NC(=O)[C@H](CCC(N)=O)NC(=O)[C@H](C)NC(=O)[C@H](CCCNC(=N)N)NC(=O)[C@H](CCCNC(=N)N)NC(=O)[C@H](CC(C)C)NC(=O)[C@H](CC(=O)O)NC(=O)[C@H](CC(C)C)NC(=O)[C@H](Cc1ccc(O)cc1)NC(=O)[C@H](CCCCN)NC(=O)[C@H](CO)NC(=O)[C@@H](NC(=O)[C@H](CC(=O)O)NC(=O)[C@H](CO)NC(=O)[C@@H](NC(=O)[C@H](Cc1ccccc1)NC(=O)[C@@H](NC(=O)CNC(=O)[C@H](CCC(N)=O)NC(=O)[C@H](CO)NC(=O)[C@@H](N)Cc1c[nH]cn1)[C@@H](C)O)[C@@H](C)O)C(C)C)C(C)C)C(=O)N[C@@H](Cc1c[nH]c2ccccc12)C(=O)N[C@@H](CC(C)C)C(=O)N[C@@H](CC(C)C)C(=O)N[C@@H](CO)C(=O)N[C@H](C(=O)O)[C@@H](C)O)C(=O)O)C(=O)O)C(=O)O)C(=O)O` [Example 43, N^ε24-[(4S)-4-[[(4S)-4-[[(4S)-4-[[(4S)-4-acetamido-4-carboxybutanoyl]amino]-4-carboxybutanoyl]amino]-4-carboxybutanoyl]amino]-4-carboxybutanoyl]-[Val^10,Leu^16,Lys^24,Leu^27,Ser^28]-Glucagon] (H-HSQGTFTSDVSKYLDLRRAQDFVK([γGlu-γGlu-γGlu-γGlu-Ac])WLLST-OH), the pEC50 was 10.80.

For the compound `CC(C)C[C@H](NC(=O)[C@H](Cc1c[nH]c2ccccc12)NC(=O)[C@H](CCCCNC(=O)CC[C@H](NC(=O)CC[C@H](NC(=O)CC[C@H](NC(=O)CC[C@H](N)C(=O)O)C(=O)O)C(=O)O)C(=O)O)NC(=O)[C@@H](NC(=O)[C@H](Cc1ccccc1)NC(=O)[C@H](CC(=O)O)NC(=O)[C@H](C)NC(=O)[C@H](C)NC(=O)[C@H](CCCNC(=N)N)NC(=O)[C@H](CCCNC(=N)N)NC(=O)[C@@H](NC(=O)[C@H](CC(=O)O)NC(=O)[C@H](CC(C)C)NC(=O)[C@H](Cc1ccc(O)cc1)NC(=O)[C@H](CCCNC(=N)N)NC(=O)[C@H](CO)NC(=O)[C@H](Cc1ccc(O)cc1)NC(=O)[C@H](CC(=O)O)NC(=O)[C@H](CO)NC(=O)[C@@H](NC(=O)[C@H](Cc1ccccc1)NC(=O)[C@@H](NC(=O)CNC(=O)[C@H](Cc1c[nH]cn1)NC(=O)[C@H](CO)NC(=O)[C@@H](N)Cc1c[nH]cn1)[C@@H](C)O)[C@@H](C)O)[C@@H](C)O)C(C)C)C(=O)N[C@@H](CC(C)C)C(=O)N[C@@H](CO)C(=O)N[C@H](C(=O)O)[C@@H](C)O` [Example 9, N^ε24-[(4S)-4-[[(4S)-4-[[(4S)-4-[[(4S)-4-amino-4-carboxybutanoyl]amino]-4-carboxybutanoyl]amino]-4-carboxybutanoyl]amino]-4-carboxybutanoyl]-[His3,Arg12,Thr16,Ala20,Lys24,Leu27,Ser28]-Glucagon] (H-HSHGTFTSDYSRYLDTRRAADFVK([γGlu-γGlu-γGlu-γGlu])WLLST-OH), the negative logarithm of the EC50 (pEC50) is 10.43.

Compound `CC(=O)N[C@@H](CCC(=O)N[C@@H](CCC(=O)N[C@@H](CCC(=O)N[C@@H](CCC(=O)NCCCC[C@H](NC(=O)[C@@H](NC(=O)[C@H](Cc1ccccc1)NC(=O)[C@H](CC(=O)O)NC(=O)[C@H](C)NC(=O)[C@H](C)NC(=O)[C@H](CCCNC(=N)N)NC(=O)[C@H](CCCNC(=N)N)NC(=O)[C@H](CO)NC(=O)[C@H](CC(=O)O)NC(=O)[C@H](CC(C)C)NC(=O)[C@H](Cc1ccc(O)cc1)NC(=O)[C@H](CCCCN)NC(=O)[C@H](CO)NC(=O)[C@H](Cc1ccc(O)cc1)NC(=O)[C@H](CC(=O)O)NC(=O)[C@H](CO)NC(=O)[C@@H](NC(=O)[C@H](Cc1ccccc1)NC(=O)[C@@H](NC(=O)CNC(=O)[C@H](Cc1c[nH]cn1)NC(=O)[C@H](CO)NC(=O)[C@@H](N)Cc1c[nH]cn1)[C@@H](C)O)[C@@H](C)O)C(C)C)C(=O)N[C@@H](Cc1c[nH]c2ccccc12)C(=O)N[C@@H](CC(C)C)C(=O)N[C@@H](CC(C)C)C(=O)N[C@@H](CO)C(=O)N[C@H](C(=O)O)[C@@H](C)O)C(=O)O)C(=O)O)C(=O)O)C(=O)O` [Example 4, N^ε24-[(4S)-4-[[(4S)-4-[[(4S)-4-[[(4S)-4-acetamido-4-carboxybutanoyl]amino]-4-carboxybutanoyl]amino]-4-carboxybutanoyl]amino]-4-carboxybutanoyl]-[His3,Ala20,Lys24,Leu27,Ser28]-Glucagon] (H-HSHGTFTSDYSKYLDSRRAADFVK([γGlu-γGlu-γGlu-γGlu-Ac])WLLST-OH) showed a pEC50 of 10.84.

As for `CC(=O)N[C@@H](CCC(=O)N[C@@H](CCC(=O)N[C@@H](CCC(=O)N[C@@H](CCC(=O)NCCCC[C@H](NC(=O)[C@@H](NC(=O)[C@H](Cc1ccccc1)NC(=O)[C@H](CCC(=O)O)NC(=O)[C@H](CCC(N)=O)NC(=O)[C@H](C)NC(=O)[C@H](CCCNC(=N)N)NC(=O)[C@H](CCCNC(=N)N)NC(=O)[C@H](CO)NC(=O)[C@H](CCC(=O)O)NC(=O)[C@H](CC(C)C)NC(=O)[C@H](Cc1ccc(O)cc1)NC(=O)[C@H](CCCCN)NC(=O)[C@H](CO)NC(=O)[C@@H](NC(=O)[C@H](CC(=O)O)NC(=O)[C@H](CO)NC(=O)[C@@H](NC(=O)[C@H](Cc1ccccc1)NC(=O)[C@@H](NC(=O)CNC(=O)[C@H](CCC(N)=O)NC(=O)[C@H](CO)NC(=O)[C@@H](N)Cc1c[nH]cn1)[C@@H](C)O)[C@@H](C)O)C(C)C)C(C)C)C(=O)N[C@@H](Cc1c[nH]c2ccccc12)C(=O)N[C@@H](CC(C)C)C(=O)N[C@@H](CC(C)C)C(=O)N[C@@H](CO)C(=O)N[C@H](C(=O)O)[C@@H](C)O)C(=O)O)C(=O)O)C(=O)O)C(=O)O` [Example 45, N^ε24-[(4S)-4-[[(4S)-4-[[(4S)-4-[[(4S)-4-acetamido-4-carboxybutanoyl]amino]-4-carboxybutanoyl]amino]-4-carboxybutanoyl]amino]-4-carboxybutanoyl]-[Val^10,Glu^15,Glu^21,Lys^24,Leu^27,Ser^28]-Glucagon] (H-HSQGTFTSDVSKYLESRRAQEFVK([γGlu-γGlu-γGlu-γGlu-Ac])WLLST-OH), the pEC50 was 10.57.

With `CC(=O)N[C@@H](CCC(=O)N[C@@H](CCC(=O)N[C@@H](CCC(=O)N[C@@H](CCC(=O)NCCCC[C@H](NC(=O)[C@@H](NC(=O)[C@H](Cc1ccccc1)NC(=O)[C@H](CCC(=O)O)NC(=O)[C@H](C)NC(=O)[C@H](C)NC(=O)[C@H](CCCNC(=N)N)NC(=O)[C@H](CCCNC(=N)N)NC(=O)[C@@H](NC(=O)[C@H](CC(=O)O)NC(=O)[C@H](CC(C)C)NC(=O)[C@H](Cc1ccc(O)cc1)NC(=O)[C@H](CCCCN)NC(=O)[C@H](CO)NC(=O)[C@H](Cc1ccc(O)cc1)NC(=O)[C@H](CC(=O)O)NC(=O)[C@H](CO)NC(=O)[C@@H](NC(=O)[C@H](Cc1ccccc1)NC(=O)[C@@H](NC(=O)CNC(=O)[C@H](Cc1c[nH]cn1)NC(=O)CNC(=O)[C@@H](N)Cc1c[nH]cn1)[C@@H](C)O)[C@@H](C)O)C(C)C)C(C)C)C(=O)N[C@@H](Cc1c[nH]c2ccccc12)C(=O)N[C@@H](CC(C)C)C(=O)N[C@@H](CC(C)C)C(=O)N[C@@H](CO)C(=O)N[C@H](C(=O)O)[C@@H](C)O)C(=O)O)C(=O)O)C(=O)O)C(=O)O` [Example 46, N^ε24-[(4S)-4-[[(4S)-4-[[(4S)-4-[[(4S)-4-acetamido-4-carboxybutanoyl]amino]-4-carboxybutanoyl]amino]-4-carboxybutanoyl]amino]-4-carboxybutanoyl]-[Gly^2,His^3,Val^16,Ala^2°,Glu^21,Lys^24,Leu^27,Ser^28]-Glucagon] (H-HGHGTFTSDYSKYLDVRRAAEFVK([γGlu-γGlu-γGlu-γGlu-Ac])WLLST-OH), the pEC50 is 10.62.

As a reminder, the pEC50 is the negative decadic logarithm of the EC50, by convention in mol/L. Read a high pEC50 as a small EC50.
